The subject of one assay is ovarian cancer. The settings on record: administration to tumor-bearing mice; cited from earlier work.
A further assay has as its target 5-HT2A (Homo sapiens, UniProt P28223). As to conditions: cited from earlier work.
Another assay addresses T1, 5-HT1A receptors (Homo sapiens, UniProt P08908).
T1 sequence (P08908 1-422): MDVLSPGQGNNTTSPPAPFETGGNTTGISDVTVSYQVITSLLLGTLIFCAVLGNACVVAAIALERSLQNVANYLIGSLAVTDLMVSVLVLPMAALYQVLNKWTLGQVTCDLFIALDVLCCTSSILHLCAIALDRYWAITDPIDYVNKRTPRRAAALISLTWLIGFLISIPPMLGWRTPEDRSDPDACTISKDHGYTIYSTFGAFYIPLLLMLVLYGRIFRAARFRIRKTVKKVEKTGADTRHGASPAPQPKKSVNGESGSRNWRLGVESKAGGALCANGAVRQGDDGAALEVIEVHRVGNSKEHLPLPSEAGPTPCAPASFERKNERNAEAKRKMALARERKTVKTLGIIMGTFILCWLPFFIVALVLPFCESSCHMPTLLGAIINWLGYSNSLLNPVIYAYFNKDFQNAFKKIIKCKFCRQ
As to conditions: cited from earlier work.

The subject of a further assay is Raji cells. Briefly: CAR-T cell killing of luciferase-expressing Raji cells after pretreatment of CAR-T cells with serotonergic agonist. The class given is cell-based, human. The settings on record: for enhancement of killing of Raji cells: CD19 CAR-T cells preincubated one hour with 5×10^−5, 1×10^−4 or 2×10^−4 M agonist, washed, co-cultured 4 hours, versus unstimulated CAR-T cells; for level of killing of Raji cells: E:T ratio 3:1, agonist-stimulated CAR-T cells, 1% Triton-X100 control set as 100% killing. The method, then: Pergolide mesylate and 8-OH-DPAT (Sigma) were each dissolved in dimethyl sulfoxide (DMSO) to 2×10^−2 M. The solutions were subsequently diluted in Basal CAR-T medium (ProMab (Richmond, CA)) supplemented with 10% fetal bovine serum, 100U/mL sodium penicillin G (Rafa, Jerusalem) and 1000U/mL streptomycin (Rafa, Jerusalem), in a serial manner, to the indicated final concentrations. CD19 scFv-4-1BB-CD3ζ CAR-T cells (CAT. PM-CAR1002-1M) purchased from ProMab (Richmond, CA) were incubated with the diluted pergolide mesylate or 8-OH-DPAT for one hour, at 37° C. and 5% C02. The cells were pelleted by centrifugation and washed with regular cell growth medium to remove pergolide mesylate and 8-OH-DPAT prior to co-culture with target luciferase Raji cells.
Luciferase Raji cells stably expressing luciferase (Raji/NF-kB Reporter (Luc) stable cell line Cat. CL-1280) were purchased from FenicsBio (Halethorpe, MD) and grown in RPMI medium (Gibco Cat. 21875-034) supplemented with 10% fetal bovine serum, 100U/mL sodium penicillin G (Rafa, Jerusalem) and 1000 U/mL streptomycin (Rafa, Jerusalem), at 37° C. and 5% C02.
Target 2.5×10^3 Raji-luc cells were cultured, at 37° C. and 5% CO2, in each well of 96-well plates, either in medium, medium containing 1% Triton-X100 (Sigma), or with effector CAR-T cells, at an effector:target cell ratio of 0.5:1, 1:1, or 3:1 for 4 hours. Four replicate wells were prepared for each type of sample. Following the incubation period, the cells were incubated with 50 μL of reconstituted reagent (Bright-Glo Luciferase Assay System, E2620) for 2 min to detect the fluorescence intensity (FLUOstar OMEGA). The fluorescence intensity of the 1% Triton-X100 control was set as 100% killing.

Where a name gives a salt, the structure may show the parent alone.

5-HT2A, sequence (P28223 whole entry): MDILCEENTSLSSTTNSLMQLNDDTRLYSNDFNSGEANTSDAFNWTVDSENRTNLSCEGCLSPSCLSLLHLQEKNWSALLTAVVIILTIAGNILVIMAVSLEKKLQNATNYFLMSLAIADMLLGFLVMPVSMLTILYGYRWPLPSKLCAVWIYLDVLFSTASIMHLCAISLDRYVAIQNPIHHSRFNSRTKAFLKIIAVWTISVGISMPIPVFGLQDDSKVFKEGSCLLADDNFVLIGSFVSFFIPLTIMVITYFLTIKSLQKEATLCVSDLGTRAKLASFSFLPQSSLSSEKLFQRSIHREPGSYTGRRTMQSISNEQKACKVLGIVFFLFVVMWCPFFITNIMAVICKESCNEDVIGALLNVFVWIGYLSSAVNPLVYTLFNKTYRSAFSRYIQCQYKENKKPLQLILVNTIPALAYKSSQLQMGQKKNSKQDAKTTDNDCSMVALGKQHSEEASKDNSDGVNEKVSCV

Regarding `NCCc1c[nH]c2ccc(O)cc12` [serotonin, 5-hydroxytryptamine], in the assay with ovarian cancer, the “time to disease progression” value is “decreased” and the tumor weight entry was “increased”.

On to `CN(C)CCc1c[nH]c2cccc(OP(=O)(O)O)c12` [psilocybin], for which the values for the Ki at 5-HT2A and on 5-HT1A receptors were 6 nM and 190 nM, respectively.

For `CCCN1C[C@H](CSC)C[C@@H]2c3cccc4[nH]cc(c34)C[C@H]21` [pergolide mesylate], in the assay on Raji cells, the “enhancement of killing of Raji cells” value is on record as 2-3 fold and the “level of killing of Raji cells” value is recorded as “approximately 100%”.

As to `CN[C@H]1CC[C@@H](c2ccc(Cl)c(Cl)c2)c2ccccc21` [sertraline], in the assay with ovarian cancer, the “time to disease progression” value was “decreased” and the tumor weight result is “increased”.

In the case of `CCCN(CCC)C1CCc2cccc(O)c2C1` (stereo not shown) [8-OH-DPAT, 8-hydroxy-2-(di-n-propylamino)tetralin], in the assay on Raji cells, the “enhancement of killing of Raji cells” value was 2-3 fold and the “level of killing of Raji cells” value is given as “approximately 100%”.

Source of the values: patent publication US20240252535A1, “CELLULAR COMPOSITION FOR TREATMENT OF DISEASES, DISORDERS OR CONDITIONS AND METHOD OF USE” (priority 2020, published 2024).
